16 molecules from patent publication US8680290B2, “Isoxazoline derivatives and their use as herbicides” (Syngenta Limited, priority 2004, dated 2014) can be followed below.

Holding throughout (type): in vivo
Test [1] relates to Monocotyledonous and dicotyledonous test plants. The test can be described thus: Example B2 herbicidal action, application pre-emergence, 96-cell seed trays (Table B2b). The conditions noted are these: 1000 g/ha. As for the experimental part: Monocotyledonous and dicotyledonous test plants were sown in sterilised standard soil in seed trays each having 96 cells. After one day (pre-emergence) or after 8 to 9 days cultivation (post-emergence) under controlled conditions in a climatic chamber (cultivation at 17/23° C.; 13 hours light; 50-60% humidity; after application at 19/24° C.), the plants were treated with an aqueous spray solution of 1000 mg/l of the active ingredient used (rate of application: […]; incl. 10% DMSO as solvent). The plants were grown on in the climatic chamber until the test was evaluated (10 total damage to plant, 0=no damage to plant) after 9 or 13 days.

Test [2] shares this test system. The test can be described thus: Example B1 herbicidal action, application pre-emergence (Table B1b). The conditions noted are these: 250 g/ha, evaluated after 4 weeks. An outline of the steps: (§1)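 Visual damage rating, 10 = plant dead and 0 = unharmed, taken at 3 weeks for post-emergence and 4 weeks for pre-emergence treatment. Application by spray of formulated aqueous solution either immediately after sowing or at 8–9 days' growth, with mono- and dicot plants kept in a greenhouse.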

Test [3] has the same test system. The test can be described thus: Example B1 herbicidal action, application post-emergence (Table B1a). The conditions noted are these: 250 g/ha, evaluated after 3 weeks, scale 0-10. An outline of the steps: as §1

Consider `CCOC(=O)CCC(c1c(F)cccc1F)S(=O)(=O)C1=NOC(C)(C)C1` (stereo not shown) [Compound No. 1.08, 4-(2,6-difluoro-phenyl)-4-(5,5-dimethyl-4,5-dihydroisoxazole-3-sulfonyl)-butyric acid ethyl ester], for which, in test [1], the “herbicidal action (damage rating 0-10), Agrostis” value (shortened to “herbicidal action … Agrostis”) turned out to be 7; the “herbicidal action (damage rating 0-10), Digitaria” value (“herbicidal action … Digitaria” for short) is given as 8; the “herbicidal action (damage rating 0-10), Poa” value (shortened to “herbicidal action … Poa”) came to 9; the “herbicidal action (damage rating 0-10), Setaria” value (“herbicidal action … Setaria” below) is reported as 3.

`CC1(C)CC(S(=O)(=O)C2(c3c(F)cccc3F)CC2(Cl)Cl)=NO1` (stereo not shown) [Compound No. 1.45, 3-[2,2-dichloro-1-(2,6-difluoro-phenyl)-cyclopropanesulfonyl]-5,5-dimethyl-4,5-dihydroisoxazole]: in test [1], the “herbicidal action … Agrostis” value amounted to 7; the “herbicidal action … Digitaria” value is recorded as 8; the “herbicidal action … Poa” value is 10; the “herbicidal action … Setaria” value was 6.

In the case of `CC1(C)CC(S(=O)(=O)C2(c3c(F)cccc3F)CC2[N+](=O)[O-])=NO1` (stereo not shown) [1.48], in test [1], the “herbicidal action … Agrostis” value came out at 10; the “herbicidal action … Digitaria” value was 9; the “herbicidal action … Poa” value was determined as 10; the “herbicidal action … Setaria” value is 8.

For the molecule `Cn1nc(C(F)(F)F)c(C(F)S(=O)(=O)C2=NOC(C)(C)C2)c1Cl` (stereo not shown) [2.02], in test [1], the “herbicidal action … Agrostis” value came to 10; the “herbicidal action … Digitaria” value is given as 9; the “herbicidal action … Poa” value was found to be 10; the “herbicidal action … Setaria” value is listed as 10.

Consider `CC1(C)CC(S(=O)(=O)C(c2c(F)cccc2F)S(=O)(=O)Cc2ccccc2)=NO1` (stereo not shown) [1.39], for which, in test [2], the “herbicidal action (damage rating 0-10), Amaranthus” value (“herbicidal action … Amaranthus” below) is listed as 3; the “herbicidal action … Digitaria” value came to 7; the “herbicidal action (damage rating 0-10), Panicum” value (shortened to “herbicidal action … Panicum”) was 7; the “herbicidal action … Setaria” value is 3. In addition, in test [2], the “herbicidal action (damage rating 0-10), Sida” value (from here on “herbicidal action … Sida”) is 0. Also, in test [1], the “herbicidal action … Agrostis” value was determined as 10; the “herbicidal action … Digitaria” value is given as 5; the “herbicidal action … Poa” value came to 10; the “herbicidal action … Setaria” value amounted to 3.

Turning to `CC1(C)CC(S(=O)(=O)C2(c3c(F)cccc3F)CC2)=NO1` [Compound No. 1.01, 3-[1-(2,6-difluoro-phenyl)-cyclopropanesulfonyl]-5,5-dimethyl-4,5-dihydroisoxazole], in test [2], the “herbicidal action … Amaranthus” value is reported as 2; the “herbicidal action … Digitaria” value stood at 7; the “herbicidal action … Panicum” value is given as 8; the “herbicidal action … Setaria” value is 8. Also, the “herbicidal action … Sida” value in test [2] was determined as 0. Moreover, in test [1], the “herbicidal action … Agrostis” value is given as 10; the “herbicidal action … Digitaria” value was 9; the “herbicidal action … Poa” value amounted to 10; the “herbicidal action … Setaria” value came out at 9.

For `COCC(=O)OC(COC)=C(c1c(F)cccc1F)S(=O)(=O)C1=NOC(C)(C)C1` [1.100], in test [1], the “herbicidal action … Agrostis” value worked out at 5; the “herbicidal action … Digitaria” value was 7; the “herbicidal action … Poa” value is reported as 9; the “herbicidal action … Setaria” value amounted to 3.

With `COCC(=O)C(c1c(F)cccc1F)S(=O)(=O)C1=NOC(C)(C)C1` (stereo not shown) [Compound No. 1.59], in test [1], the “herbicidal action … Agrostis” value amounted to 9; the “herbicidal action … Digitaria” value came out at 8; the “herbicidal action … Poa” value turned out to be 10; the “herbicidal action … Setaria” value turned out to be 9.

Take `CC1(C)CC(S(=O)(=O)C(F)(F)c2cccnc2Cl)=NO1` [8.04]: in test [2], the “herbicidal action … Amaranthus” value stood at 10; the “herbicidal action … Digitaria” value is reported as 10; the “herbicidal action … Panicum” value was determined as 10; the “herbicidal action … Setaria” value came out at 10. The “herbicidal action … Sida” value in test [2] was 3. In test [3], the “herbicidal damage rating, Abutilon” value was determined as 3; the “herbicidal damage rating, Panicum” value came out at 3; the “herbicidal damage rating, Setaria” value is reported as 2; the “herbicidal damage rating, Sida” value is on record as 0.

For the molecule `CC1(C)CC(S(=O)(=O)C(F)(F)c2ccccc2OC(F)(F)F)=NO1` [1.67], in test [2], the “herbicidal action … Amaranthus” value is 10; the “herbicidal action … Digitaria” value is 10; the “herbicidal action … Panicum” value was 10; the “herbicidal action … Setaria” value turned out to be 10. The “herbicidal action … Sida” value in test [2] amounted to 9. Further, in test [3], the “herbicidal damage rating, Abutilon” value is 4; the “herbicidal damage rating, Amaranthus” value was determined as 3; the “herbicidal damage rating, Panicum” value came to 3; the “herbicidal damage rating, Setaria” value is reported as 5. Further, in test [3], the “herbicidal damage rating, Sida” value was found to be 4.

Take `Cc1ccccc1C(F)(F)S(=O)(=O)C1=NOC(C)(C)C1` [1.92]: in test [2], the “herbicidal action … Amaranthus” value is listed as 10; the “herbicidal action … Digitaria” value came out at 10; the “herbicidal action … Panicum” value was found to be 10; the “herbicidal action … Setaria” value is on record as 10. Further, the “herbicidal action … Sida” value in test [2] is given as 8. Besides, in test [3], the “herbicidal damage rating, Abutilon” value was 5; the “herbicidal damage rating, Amaranthus” value was determined as 3; the “herbicidal damage rating, Digitaria” value turned out to be 8; the “herbicidal damage rating, Panicum” value is on record as 5. In test [3], the “herbicidal damage rating, Setaria” value is given as 7 and the “herbicidal damage rating, Sida” value is on record as 7.

With `COc1cc(OC)cc(C(F)(Cl)S(=O)(=O)C2=NOC(C)(C)C2)c1` (racemic) [1.96], in test [2], the “herbicidal action … Amaranthus” value amounted to 9; the “herbicidal action … Digitaria” value turned out to be 10; the “herbicidal action … Panicum” value was determined as 10; the “herbicidal action … Setaria” value is 10. For the same molecule, in test [2], the “herbicidal action … Sida” value is listed as 4. In addition, in test [3], the “herbicidal damage rating, Abutilon” value was 5; the “herbicidal damage rating, Amaranthus” value is listed as 0; the “herbicidal damage rating, Digitaria” value was 8; the “herbicidal damage rating, Panicum” value was 5. In test [3], the “herbicidal damage rating, Setaria” value turned out to be 3 and the “herbicidal damage rating, Sida” value is 2.

Consider `CC1(C)CC(S(=O)(=O)C(Br)c2c(F)cccc2C(F)(F)F)=NO1` (racemic) [1.80], for which, in test [2], the “herbicidal action … Amaranthus” value was determined as 10; the “herbicidal action … Digitaria” value stood at 10; the “herbicidal action … Panicum” value is listed as 10; the “herbicidal action … Setaria” value is recorded as 10. Further, the “herbicidal action … Sida” value in test [2] came to 9. In test [3], the “herbicidal damage rating, Abutilon” value is reported as 4; the “herbicidal damage rating, Amaranthus” value is listed as 0; the “herbicidal damage rating, Digitaria” value is given as 8; the “herbicidal damage rating, Panicum” value worked out at 5. Further, in test [3], the “herbicidal damage rating, Setaria” value was 7 and the “herbicidal damage rating, Sida” value came out at 5.

`CC1(C)CC(S(=O)(=O)C(F)(F)c2ccccc2-c2ccccc2)=NO1` [1.117]: in test [2], the “herbicidal action … Amaranthus” value is reported as 9; the “herbicidal action … Digitaria” value came out at 10; the “herbicidal action … Panicum” value came out at 10; the “herbicidal action … Setaria” value is reported as 8. Also, the “herbicidal action … Sida” value in test [2] is 4. Further, in test [3], the “herbicidal damage rating, Abutilon” value is 4; the “herbicidal damage rating, Amaranthus” value stood at 7; the “herbicidal damage rating, Digitaria” value is reported as 7; the “herbicidal damage rating, Panicum” value was determined as 5. Moreover, in test [3], the “herbicidal damage rating, Setaria” value is 6 and the “herbicidal damage rating, Sida” value is 6.

In the case of `CC1(C)CC(S(=O)(=O)C(F)(Cl)c2ccccc2C#N)=NO1` (racemic) [1.71], in test [2], the “herbicidal action … Amaranthus” value amounted to 10; the “herbicidal action … Digitaria” value came out at 9; the “herbicidal action … Panicum” value is reported as 10; the “herbicidal action … Setaria” value turned out to be 9. The “herbicidal action … Sida” value in test [2] was found to be 5. For the same molecule, in test [3], the “herbicidal damage rating, Abutilon” value worked out at 0; the “herbicidal damage rating, Amaranthus” value was 5; the “herbicidal damage rating, Digitaria” value was 8; the “herbicidal damage rating, Panicum” value amounted to 0. In addition, in test [3], the “herbicidal damage rating, Setaria” value worked out at 3 and the “herbicidal damage rating, Sida” value is reported as 2.

Turning to `Cn1nc(C(F)(F)F)c(C(Cl)(Cl)S(=O)(=O)C2=NOC(C)(C)C2)c1OCC(F)(F)F` [2.13], in test [2], the “herbicidal action … Amaranthus” value was 10; the “herbicidal action … Digitaria” value was found to be 10; the “herbicidal action … Panicum” value is reported as 10; the “herbicidal action … Setaria” value is recorded as 10. Besides, the “herbicidal action … Sida” value in test [2] is 7. In test [3], the “herbicidal damage rating, Abutilon” value came to 6; the “herbicidal damage rating, Amaranthus” value came out at 7; the “herbicidal damage rating, Digitaria” value is 5; the “herbicidal damage rating, Panicum” value turned out to be 7. In test [3], the “herbicidal damage rating, Setaria” value was 8 and the “herbicidal damage rating, Sida” value amounted to 7.
